According to US9309239B2, “Substituted 6-fluoro-1H-pyrazolo[4,3-b]pyridines and use thereof” (BAYER INTELLECTUAL PROPERTY GMBH, priority 2010, dated 2016):

Experiments:
rabbit aorta rings = experiment: Vasorelaxant action in vitro (phenylephrine-contracted rabbit aorta rings); conditions: Oryctolagus cuniculus; concentration reducing phenylephrine-induced contraction of rabbit aorta rings by 50%
Procedure: B-1. Vasorelaxant Action In Vitro
Rabbits are stunned by a blow to the neck and exsanguinated. The aorta is removed, freed from adhering tissue and divided into rings of a width of 1.5 mm. The rings are placed individually under an initial tension in 5 ml organ baths with Krebs-Henseleit solution which is at 37° C., is gassed with carbogen and has the following composition (in each case mM): sodium chloride 119; potassium chloride: 4.8; calcium chloride dihydrate: 1; magnesium sulfate heptahydrate: 1.4; potassium dihydrogenphosphate: 1.2; sodium bicarbonate: 25; glucose: 10. The contractile force is determined with Statham UC2 cells, amplified and digitalized using A/D transducers (DAS 1802 HC, Keithley Instruments Munich), and recorded in parallel on linear recorders. To obtain a contraction, phenylephrine is added to the bath cumulatively in increasing concentration. After several control cycles, the substance to be investigated is added in each further run in increasing dosage in each case, and the height of the contraction achieved is compared with the height of the contraction reached in the last preceding run. This is used to calculate the concentration needed to reduce the magnitude of the control value by 50% (IC50 value). The standard administration volume is 5 μl; the DMSO content in the bath solution corresponds to 0.1%.

[1] = test system: recombinant guanylate cyclase reporter cell line; experiment: Effect on a recombinant guanylate cyclase reporter cell line; assay type: cell-based; conditions: MEC=minimum effective concentration
Procedure: B-2. Effect on a Recombinant Guanylate Cyclase Reporter Cell Line
The cellular activity of the compounds according to the invention is determined using a recombinant guanylate cyclase reporter cell line, as described in F. Wunder et al., Anal. Biochem. 339, 104-112 (2005).

[2] = Pharmacokinetic parameters following intravenous administration in rats; assay type: in vivo, male Wistar rats; conditions: intravenous administration of 0.3 mg/kg
Procedure: B-4. Determination of Pharmacokinetic Parameters Following Intravenous and Oral Administration:
The pharmacokinetic parameters of the substance are determined in male CD-1 mice, male Wistar rats and female beagles. The administration volume is 1 ml/kg for mice, 5 ml/kg for rats and 0.5 ml/kg for dogs. Intravenous administration is via a formulation of species-specific plasma/DMSO (99/1) in the case of mice and rats and via water/PEG400/ethanol (50/40/10) in the case of dogs. The taking of blood from rats is simplified by inserting a silicone catheter into the right Vena jugularis externa prior to substance administration. The surgical intervention takes place one day prior to the experiment with isofluran anesthesia and administration of an analgetic (carprofen 5 mg/kg s.c.). Substance administration is as i.v. bolus in the case of mice and via a 15-minute infusion in the case of rats and dogs. Removal of blood is after 0, 0.033, 0.083, 0.17, 0.5, 1, 2, 3, 4, 6, 7 and 24 hours in the case of mice and after 0, 0.083, 0.25, 0.28, 0.33, 0.42, 0.75, 1, 2, 3, 4, 6, 7 and 24 hours in the case of dogs and rats. […]
An internal standard (ZK 228859) is added to the unknown samples, calibration samples and QCs, and the protein is precipitated using excess acetonitrile. […] The substances are quantified by peak heights or areas using extracted ion chromatograms of specific MRM experiments.
The plasma concentration/time plots determined are used to calculate the pharmacokinetic parameters such as AUC, Cmax, t1/2 (half life) and CL (clearance) employing the validated pharmacokinetic calculation program KinEx (Vers. 2.5 and 3).
Since the substance quantification is performed in plasma, it is necessary to determine the blood/plasma distribution of the substance in order to be able to adjust the pharmacokinetic parameters correspondingly. […] After centrifugation at 1000 g, the plasma concentration is measured (see above) and determined by calculating the quotient of the cb/cp values.
Following intravenous administration of 0.3 mg/kg of example 1 in rats, the following values were recorded: […]

SMILES	IC50 (rabbit aorta rings) [nM]	AUCnorm [2] [kg·h/L]	clearance ([2]; male, Wistar, rat, blood, read-out: CL blood (converted)) [mL/min/kg]	half-life ([2]; male, Wistar, rat, plasma) [min]	MEC [1] [µM]
COC(=O)N(C)c1c(N)nc(-n2nc(Cc3ccccc3F)c3ncc(F)cc32)nc1N [Example 7, Methyl {4,6-diamino-2-[6-fluoro-3-(2-fluorobenzyl)-1H-pyrazolo[4,3-b]pyridin-1-yl]pyrimidin-5-yl}methylcarbamate]	194				0.1
COC(=O)Nc1c(N)nc(-n2nc(Cc3ccccc3F)c3ncc(F)cc32)nc1N [Example 1, Methyl {4,6-diamino-2-[6-fluoro-3-(2-fluorobenzyl)-1H-pyrazolo[4,3-b]pyridin-1-yl]pyrimidin-5-yl}carbamate]	1380	4.62	5.5	82.8	0.3
CCOC(=O)Nc1c(N)nc(-n2nc(Cc3ccccc3F)c3ncc(F)cc32)nc1N [Example 2, Ethyl {4,6-diamino-2-[6-fluoro-3-(2-fluorobenzyl)-1H-pyrazolo[4,3-b]pyridin-1-yl]pyrimidin-5-yl}carbamate]	763				0.3

More lines, main results first:

IC50 (rabbit aorta rings) [nM]	AUCnorm [2] [kg·h/L]	clearance ([2]; male, Wistar, rat, blood, read-out: CL blood (converted)) [mL/min/kg]	half-life ([2]; male, Wistar, rat, plasma) [min]	SMILES	MEC [1] [µM]
178				COC(=O)N(CC(F)(F)F)c1c(N)nc(-n2nc(Cc3ccccc3F)c3ncc(F)cc32)nc1N [Example 13, Methyl {4,6-diamino-2-[6-fluoro-3-(2-fluorobenzyl)-1H-pyrazolo[4,3-b]pyridin-1-yl]pyrimidin-5-yl}(2,2,2-trifluoroethyl)carbamate]	0.1
286				CCOC(=O)N(C)c1c(N)nc(-n2nc(Cc3ccccc3F)c3ncc(F)cc32)nc1N [Example 8, Ethyl {4,6-diamino-2-[6-fluoro-3-(2-fluorobenzyl)-1H-pyrazolo[4,3-b]pyridin-1-yl]pyrimidin-5-yl}methylcarbamate]	0.1
